In patent publication US20080221161A1, “HETEROCYCLIC MODULATORS OF TGR5 FOR TREATMENT OF DISEASE” (KALYPSYS, INC., priority 2007, published 2008):
Counter-ions that a name gives are not always drawn.

Columns and labels:
human TGR5 = biological target: T1, human TGR5 (Homo sapiens, UniProt Q8TDU6); assay: cAMP production assay in HEK293-TGR5 cells; type: cell-based; conditions: HEK293 cells stably expressing human TGR5; 30 minutes stimulation; LANCE cAMP TR-FRET; read-out: cAMP Production in 293-TGR5 Cells EC50
T1 construct: expressed in transfected cells; host or cells: HEK-293 cells, stably transfected (pcDNA 3.1, Fugene6, geneticin selection)
T1 sequence (Q8TDU6 1-330): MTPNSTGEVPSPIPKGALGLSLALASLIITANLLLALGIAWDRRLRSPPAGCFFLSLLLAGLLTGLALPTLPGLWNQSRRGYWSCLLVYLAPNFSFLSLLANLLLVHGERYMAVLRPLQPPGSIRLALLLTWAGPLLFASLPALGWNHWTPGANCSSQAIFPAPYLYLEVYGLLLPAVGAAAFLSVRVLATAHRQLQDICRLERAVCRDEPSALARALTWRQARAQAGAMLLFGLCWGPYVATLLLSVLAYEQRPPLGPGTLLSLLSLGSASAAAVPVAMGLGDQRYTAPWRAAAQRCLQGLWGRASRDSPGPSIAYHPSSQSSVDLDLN

[1] = system: mice fed high fat diet (HFD); conditions: mice fed HFD containing 0.5% cholic acid vs HFD alone; cited from earlier work

SMILES	EC50 (human TGR5)	Food intake [1]	Weight gain [1]
CCOC(=O)c1ccc2cc(CNCCc3ccc(Br)cc3)c(-c3ccsc3)nc2c1 [Example 137, Ethyl 3-((4-bromophenethylamino)methyl)-2-(thiophen-3-yl)quinoline-7-carboxylate]	> 10 µM	–	–
CC(=O)Nc1ccc2cc(CNCCc3ccc(Br)cc3)c(-c3ccsc3)nc2c1 [Example 142, N-(3-((4-bromophenethylamino)methyl)-2-(thiophen-3-yl)quinolin-7-yl)acetamide]	> 10 µM	–	–
COc1ccc2cc(CNC(C)Cc3ccc(Br)cc3)c(-c3ccsc3)nc2c1 (centres unmarked) [Example 145, 1-(4-Bromophenyl)-N-((7-methoxy-2-(thiophen-3-yl)quinolin-3-yl)methyl)propan-2-amine]	> 10 µM	–	–
Oc1cc2nc(-c3ccsc3)c(CNCCc3ccc(Br)cc3)cc2cc1F [Example 147, 3-((4-Bromophenethylamino)methyl)-6-fluoro-2-(thiophen-3-yl)quinolin-7-ol]	> 10 µM	–	–
COc1ccc2cc(CNCCc3ccc(Br)cc3)c(OC)nc2c1 [Example 148, 2-(4-Bromophenyl)-N-((2,7-dimethoxyquinolin-3-yl)methyl)ethanamine]	> 10 µM	–	–
COc1ccc2cc(CNCCc3ccc(Br)cc3)c(O)nc2c1 [Example 149, 3-((4-Bromophenethylamino)methyl)-7-methoxyquinolin-2(1H)-one hydrochloride]	> 10 µM	–	–
C[C@H](CCC(=O)O)[C@H]1CC[C@H]2[C@@H]3[C@H](O)C[C@@H]4C[C@H](O)CC[C@]4(C)[C@H]3C[C@H](O)[C@]12C [cholic acid]	–	no difference between the two groups	gained less weight than control mice on HFD alone

Now from value to molecule, other results behind:

EC50 (human TGR5)	SMILES	Food intake [1]	Weight gain [1]
< 10 µM	C[C@H](NCc1cc2ccc(O)cc2nc1-c1ccsc1)c1ccc(Br)cc1 [Example 135, (S)-3-((1-(4-Bromophenyl)ethylamino)methyl)-2-(thiophen-3-yl)quinolin-7-ol]	–	–
< 10 µM	N#Cc1ccc2cc(CNCCc3ccc(Br)cc3)c(-c3ccsc3)nc2c1 [Example 136, 3-((4-Bromophenethylamino)methyl)-2-(thiophen-3-yl)quinoline-7-carbonitrile]	–	–
< 10 µM	NC(=O)c1ccc2cc(CNCCc3ccc(Br)cc3)c(-c3ccsc3)nc2c1 [Example 139, 3-((4-Bromophenethylamino)methyl)-2-(thiophen-3-yl)quinoline-7-carboxamide]	–	–
< 10 µM	CNC(=O)c1ccc2cc(CNCCc3ccc(Br)cc3)c(-c3ccsc3)nc2c1 [Example 140, 3-((4-Bromophenethylamino)methyl)-N-methyl-2-(thiophen-3-yl)quinoline-7-carboxamide]	–	–
< 10 µM	OCc1ccc2cc(CNCCc3ccc(Br)cc3)c(-c3ccsc3)nc2c1 [Example 141, (3-((4-Bromophenethylamino)methyl)-2-(thiophen-3-yl)quinolin-7-yl)methanol]	–	–
< 10 µM	COc1cc2nc(-c3ccsc3)c(CNCCc3ccc(Br)cc3)cc2cc1F [Example 146, 2-(4-Bromophenyl)-N-((6-fluoro-7-methoxy-2-(thiophen-3-yl)quinolin-3-yl)methyl)-ethanamine]	–	–
